Data taken from ChEMBL document CHEMBL2440076, “New triarylpyrazoles as broad-spectrum anticancer agents: design, synthesis, and biological evaluation” (Eur J Med Chem, 2013).

Experiments:
MCF7 = assay: Growth inhibition of human MCF7 cells assessed as cell growth at 10 uM after 48 hrs by sulforhodamine B assay; format: functional; settings: MCF7, 48 h, read-out: Activity
MDA-MB-231 = assay: Growth inhibition of human MDA-MB-231 cells assessed as cell growth at 10 uM after 48 hrs by sulforhodamine B assay; format: functional; settings: MDA-MB-231, 48 h, read-out: Activity
DU-145 [1] = assay: Growth inhibition of human DU145 cells assessed as cell growth at 10 uM after 48 hrs by sulforhodamine B assay; format: functional; settings: DU-145, 48 h, read-out: Activity
[2] = Growth inhibition of human NCI-ADR-RES cells assessed as cell growth at 10 uM after 48 hrs by sulforhodamine B assay; format: functional; settings: read-out: Activity
OVCAR-5 = assay: Growth inhibition of human OVCAR5 cells assessed as cell growth at 10 uM after 48 hrs by sulforhodamine B assay; format: functional; settings: OVCAR-5, 48 h, read-out: Activity
OVCAR-8 [3] = assay: Growth inhibition of human OVCAR8 cells assessed as cell growth at 10 uM after 48 hrs by sulforhodamine B assay; format: functional; settings: OVCAR-8, 48 h, read-out: Activity
OVCAR-3 = assay: Growth inhibition of human OVCAR3 cells assessed as cell growth at 10 uM after 48 hrs by sulforhodamine B assay; format: functional; settings: OVCAR-3, 48 h, read-out: Activity
SK-MEL-28 = assay: Growth inhibition of human SK-MEL-28 cells assessed as cell growth at 10 uM after 48 hrs by sulforhodamine B assay; format: functional; settings: SK-MEL-28, 48 h, read-out: Activity
M14 = assay: Growth inhibition of human M14 cells assessed as cell growth at 10 uM after 48 hrs by sulforhodamine B assay; format: functional; settings: M14, 48 h, read-out: Activity
SNB-19 = assay: Growth inhibition of human SNB19 cells assessed as cell growth at 10 uM after 48 hrs by sulforhodamine B assay; format: functional; settings: SNB-19, 48 h, read-out: Activity
SF-539 [4] = assay: Growth inhibition of human SF539 cells assessed as cell growth at 10 uM after 48 hrs by sulforhodamine B assay; format: functional; settings: SF-539, 48 h, read-out: Activity
HT-29 = assay: Growth inhibition of human HT-29 cells assessed as cell growth at 10 uM after 48 hrs by sulforhodamine B assay; format: functional; settings: HT-29, 48 h, read-out: Activity
COLO 205 = assay: Growth inhibition of human COLO205 cells assessed as cell growth at 10 uM after 48 hrs by sulforhodamine B assay; format: functional; settings: COLO 205, 48 h, read-out: Activity
NCI-H322M [5] = assay: Growth inhibition of human NCI-H322M cells assessed as cell growth at 10 uM after 48 hrs by sulforhodamine B assay; format: functional; settings: read-out: Activity
K562 = assay: Growth inhibition of human K562 cells assessed as cell growth at 10 uM after 48 hrs by sulforhodamine B assay; format: functional; settings: K562, 48 h, read-out: Activity
SW-620 = assay: Growth inhibition of human SW620 cells after 48 hrs by sulforhodamine B assay; format: functional; settings: SW-620, 48 h
KM12 = assay: Growth inhibition of human KM12 cells after 48 hrs by sulforhodamine B assay; format: functional, cell-based; settings: KM12, 48 h
HCT-116 = assay: Growth inhibition of human HCT116 cells after 48 hrs by sulforhodamine B assay; format: functional; settings: HCT-116, 48 h
HCT-15 = assay: Growth inhibition of human HCT15 cells after 48 hrs by sulforhodamine B assay; format: functional; settings: HCT-15, 48 h
[6] = Growth inhibition of human HCC2998 cells after 48 hrs by sulforhodamine B assay; format: functional; settings: HCC 2998, 48 h
NCI-H322M [7] = assay: Growth inhibition of human NCI-H322M cells after 48 hrs by sulforhodamine B assay; format: functional
A549 = assay: Growth inhibition of human A549/ATCC cells after 48 hrs by sulforhodamine B assay; format: functional; settings: A549, 48 h
SR = assay: Growth inhibition of human SR cells after 48 hrs by sulforhodamine B assay; format: functional
HOP-92 = assay: Growth inhibition of human HOP92 cells assessed as cell growth at 10 uM after 48 hrs by sulforhodamine B assay; format: functional; settings: HOP-92, 48 h, read-out: Activity
MDA-MB-468 = assay: Growth inhibition of human MDA-MB-468 cells after 48 hrs by sulforhodamine B assay; format: functional, cell-based; settings: MDA-MB-468, 48 h
DU-145 [8] = assay: Growth inhibition of human DU145 cells after 48 hrs by sulforhodamine B assay; format: functional; settings: DU-145, 48 h
UO-31 = assay: Growth inhibition of human UO31 cells after 48 hrs by sulforhodamine B assay; format: functional; settings: UO-31, 48 h
ACHN = assay: Growth inhibition of human ACHN cells after 48 hrs by sulforhodamine B assay; format: functional
786-0 = assay: Growth inhibition of human 786-0 cells after 48 hrs by sulforhodamine B assay; format: functional; settings: 786-0, 48 h
OVCAR-8 [9] = assay: Growth inhibition of human OVCAR8 cells after 48 hrs by sulforhodamine B assay; format: functional; settings: OVCAR-8, 48 h
UACC-62 = assay: Growth inhibition of human UACC62 cells after 48 hrs by sulforhodamine B assay; format: functional; settings: UACC-62, 48 h
UACC-257 = assay: Growth inhibition of human UACC257 cells after 48 hrs by sulforhodamine B assay; format: functional; settings: UACC-257, 48 h
U-251 = assay: Growth inhibition of human U251 cells after 48 hrs by sulforhodamine B assay; format: functional; settings: U-251, 48 h
SF-539 [10] = assay: Growth inhibition of human SF539 cells after 48 hrs by sulforhodamine B assay; format: functional; settings: SF-539, 48 h
[11] = read-out: LC50 (the source's name)

SMILES: COc1cc(-c2nn(-c3cccc(NC(=O)Nc4ccccc4)c3)cc2-c2ccncc2)ccc1Cl
- growth at 10 µM (MCF7): 88.8%
- growth at 10 µM (MDA-MB-231): 88%
- growth at 10 µM (DU-145 [1]): 101%
- growth at 10 µM [2]: 72.8%
- growth at 10 µM (OVCAR-5): 91.3%
- growth at 10 µM (OVCAR-8 [3]): 77.9%
- growth at 10 µM (OVCAR-3): 86.4%
- growth at 10 µM (SK-MEL-28): 86.3%
- growth at 10 µM (M14): 85.7%
- growth at 10 µM (SNB-19): 89.5%
- growth at 10 µM (SF-539 [4]): 90%
- growth at 10 µM (HT-29): 84%
- growth at 10 µM (COLO 205): 92.4%
- growth at 10 µM (NCI-H322M [5]): 95.5%
- growth at 10 µM (K562): 45.4%

SMILES: COc1cc(-c2nn(-c3cccc(NC(=O)c4cccc(C(F)(F)F)c4)c3)cc2-c2ccncc2)ccc1Cl
- growth at 10 µM (MCF7): 3.58%
- growth at 10 µM (MDA-MB-231): 4.67%
- growth at 10 µM (DU-145 [1]): 2.16%
- GI50 (SW-620): 2.31 µM
- TGI (SW-620): > 50 µM
- CC50 (SW-620; [11]): > 50 µM
- GI50 (KM12): 1.66 µM
- TGI (KM12): > 50 µM
- CC50 (KM12; [11]): > 50 µM
- GI50 (HCT-116): 1.67 µM
- TGI (HCT-116): > 50 µM
- CC50 (HCT-116; [11]): > 50 µM
- GI50 (HCT-15): 1.55 µM
- LC50 (HCT-15): > 50 µM
- TGI (HCT-15): > 50 µM
- GI50 [6]: 2.24 µM
- TGI [6]: 17.6 µM
- CC50 [6, 11]: > 50 µM
- GI50 (NCI-H322M [7]): 10.8 µM
- TGI (NCI-H322M [7]): > 50 µM
- CC50 (NCI-H322M [7]; [11]): > 50 µM
- GI50 (A549): 1.87 µM
- LC50 (concentration killing 50% of starting cells) (A549): > 50 µM
- TGI (A549): > 50 µM
- GI50 (SR): 0.838 µM
- TGI (SR): 4.59 µM
- CC50 (SR; [11]): > 50 µM
- growth at 10 µM [2]: 2.75%
- growth at 10 µM (OVCAR-5): 49.4%
- growth at 10 µM (OVCAR-8 [3]): 11.8%
- growth at 10 µM (OVCAR-3): -25.6%
- growth at 10 µM (SK-MEL-28): 32.5%
- growth at 10 µM (M14): 12.3%
- growth at 10 µM (SNB-19): 47.3%
- growth at 10 µM (SF-539 [4]): -48.8%
- growth at 10 µM (HT-29): -12.1%
- growth at 10 µM (COLO 205): 7.11%
- growth at 10 µM (NCI-H322M [5]): 58.1%
- growth at 10 µM (HOP-92): -5.59%
- GI50 (MDA-MB-468): 1.32 µM
- IC50 (MDA-MB-468): 1.32 µM
- TGI (MDA-MB-468): 4.56 µM
- CC50 (MDA-MB-468; [11]): > 50 µM
- GI50 (DU-145 [8]): 1.76 µM
- LC50 (DU-145 [8]): > 50 µM
- TGI (DU-145 [8]): 32.1 µM
- GI50 (UO-31): 0.968 µM
- TGI (UO-31): > 50 µM
- CC50 (UO-31; [11]): > 50 µM
- GI50 (ACHN): 1.89 µM
- TGI (ACHN): > 50 µM
- CC50 (ACHN; [11]): > 50 µM
- GI50 (786-0): 2.45 µM
- TGI (786-0): > 50 µM
- CC50 (786-0; [11]): > 50 µM
- GI50 (OVCAR-8 [9]): 2 µM
- TGI (OVCAR-8 [9]): > 50 µM
- CC50 (OVCAR-8 [9]; [11]): > 50 µM
- GI50 (UACC-62): 1.94 µM
- LC50 (50% lethal concentration) (UACC-62): > 50 µM
- TGI (UACC-62): > 50 µM
- GI50 (UACC-257): 27.9 µM
- TGI (UACC-257): > 50 µM
- CC50 (UACC-257; [11]): > 50 µM
- GI50 (U-251): 1.62 µM
- LC50 (concentration killing 50% of cells) (U-251): > 50 µM
- TGI (U-251): > 50 µM
- GI50 (SF-539 [10]): 0.895 µM
- LC50 (concentration killing 50% of cells) (SF-539 [10]): > 50 µM
- TGI (SF-539 [10]): 2.3 µM
- growth at 10 µM (K562): 6.11%

SMILES: COc1cc(-c2nn(-c3cccc(NC(=O)c4ccc(Br)c(C)c4)c3)cc2-c2ccncc2)ccc1Cl
- growth at 10 µM (MCF7): 75%
- growth at 10 µM (MDA-MB-231): 67%
- growth at 10 µM (DU-145 [1]): 102%
- growth at 10 µM [2]: 66.5%
- growth at 10 µM (OVCAR-5): 90.7%
- growth at 10 µM (OVCAR-8 [3]): 77.3%
- growth at 10 µM (OVCAR-3): 90.9%
- growth at 10 µM (SK-MEL-28): 80.2%
- growth at 10 µM (M14): 74.7%
- growth at 10 µM (SNB-19): 83.6%
- growth at 10 µM (SF-539 [4]): 76.8%
- growth at 10 µM (HT-29): 66.6%
- growth at 10 µM (COLO 205): 76.2%
- growth at 10 µM (NCI-H322M [5]): 91.7%
- growth at 10 µM (HOP-92): 51.3%
- growth at 10 µM (K562): 77.3%

SMILES: Cc1cc(C(=O)Nc2cccc(-n3cc(-c4ccncc4)c(-c4ccc(Cl)c(O)c4)n3)c2)ccc1Br
- growth at 10 µM (MCF7): 85.4%
- growth at 10 µM (MDA-MB-231): 70%
- growth at 10 µM (DU-145 [1]): 103%
- growth at 10 µM [2]: 99.7%
- growth at 10 µM (OVCAR-5): 109%
- growth at 10 µM (OVCAR-8 [3]): 95.1%
- growth at 10 µM (OVCAR-3): 104%
- growth at 10 µM (SK-MEL-28): 93.5%
- growth at 10 µM (M14): 89.5%
- growth at 10 µM (SNB-19): 115%
- growth at 10 µM (SF-539 [4]): 95.5%
- growth at 10 µM (HT-29): 107%
- growth at 10 µM (COLO 205): 102%
- growth at 10 µM (NCI-H322M [5]): 107%
- growth at 10 µM (HOP-92): 97.8%
- growth at 10 µM (K562): 91.4%
